{"source": "paper PMC3399817", "about": "(PLoS ONE, 2012)", "key": {"[1]": {"tested_on": "phospho-MEK1 (Ser217/Ser221) and phospho-ERK1/2 (Thr202/Tyr204, Thr185/Tyr187)", "test": "Bio-Plex phospho-MEK1 and phospho-ERK1/2", "type": "cell-based", "settings": "45 minute exposure, 1 µM, K-RAS wild-type and mutant cells", "description": "The Bio-Plex assay system was used to measure signaling in drug-treated cells. Briefly, cells were incubated in the presence of drug for various amounts of time and then lysed in Bio-Rad cell lysis buffer (Bio-Rad). Protein quantification was performed using BCA assay (Pierce) and 5 µg of protein from each sample was used for Bio-Plex analysis. Phospho-signaling assays were performed using available phospho-signaling assay kits and quantified on a Bio-Plex 200 system (Bio-Rad): p-Iκβα (Ser32/Ser36), p-JNK (Thr183/Tyr185), p-MEK1 (Ser217/Ser221), p-ERK1/2 (Thr202/Tyr204, Thr185/Tyr187), p-p90RSK (Thr359/Ser363), p-p38 (Thr180/Tyr182), p-c-JUN (Ser63), p-ATF2 (Thr71), p-AKT (Ser473), p-S6 (Ser235/Ser236), p-STAT3 (Ser727), p-STAT3 (Tyr705), and p-GSK3α/β (Ser21/Ser9). Bio-Plex assay for total MEK1 was also performed as a loading control."}, "MET(M1250T)": {"biological_target": "T1, MET(M1250T) (Homo sapiens, UniProt P08581, M1250T)", "T1 construct": "purchased Ambit KINOMEscan (DiscoverX)", "T1 sequence (P08581 25-1390 M1250T)": "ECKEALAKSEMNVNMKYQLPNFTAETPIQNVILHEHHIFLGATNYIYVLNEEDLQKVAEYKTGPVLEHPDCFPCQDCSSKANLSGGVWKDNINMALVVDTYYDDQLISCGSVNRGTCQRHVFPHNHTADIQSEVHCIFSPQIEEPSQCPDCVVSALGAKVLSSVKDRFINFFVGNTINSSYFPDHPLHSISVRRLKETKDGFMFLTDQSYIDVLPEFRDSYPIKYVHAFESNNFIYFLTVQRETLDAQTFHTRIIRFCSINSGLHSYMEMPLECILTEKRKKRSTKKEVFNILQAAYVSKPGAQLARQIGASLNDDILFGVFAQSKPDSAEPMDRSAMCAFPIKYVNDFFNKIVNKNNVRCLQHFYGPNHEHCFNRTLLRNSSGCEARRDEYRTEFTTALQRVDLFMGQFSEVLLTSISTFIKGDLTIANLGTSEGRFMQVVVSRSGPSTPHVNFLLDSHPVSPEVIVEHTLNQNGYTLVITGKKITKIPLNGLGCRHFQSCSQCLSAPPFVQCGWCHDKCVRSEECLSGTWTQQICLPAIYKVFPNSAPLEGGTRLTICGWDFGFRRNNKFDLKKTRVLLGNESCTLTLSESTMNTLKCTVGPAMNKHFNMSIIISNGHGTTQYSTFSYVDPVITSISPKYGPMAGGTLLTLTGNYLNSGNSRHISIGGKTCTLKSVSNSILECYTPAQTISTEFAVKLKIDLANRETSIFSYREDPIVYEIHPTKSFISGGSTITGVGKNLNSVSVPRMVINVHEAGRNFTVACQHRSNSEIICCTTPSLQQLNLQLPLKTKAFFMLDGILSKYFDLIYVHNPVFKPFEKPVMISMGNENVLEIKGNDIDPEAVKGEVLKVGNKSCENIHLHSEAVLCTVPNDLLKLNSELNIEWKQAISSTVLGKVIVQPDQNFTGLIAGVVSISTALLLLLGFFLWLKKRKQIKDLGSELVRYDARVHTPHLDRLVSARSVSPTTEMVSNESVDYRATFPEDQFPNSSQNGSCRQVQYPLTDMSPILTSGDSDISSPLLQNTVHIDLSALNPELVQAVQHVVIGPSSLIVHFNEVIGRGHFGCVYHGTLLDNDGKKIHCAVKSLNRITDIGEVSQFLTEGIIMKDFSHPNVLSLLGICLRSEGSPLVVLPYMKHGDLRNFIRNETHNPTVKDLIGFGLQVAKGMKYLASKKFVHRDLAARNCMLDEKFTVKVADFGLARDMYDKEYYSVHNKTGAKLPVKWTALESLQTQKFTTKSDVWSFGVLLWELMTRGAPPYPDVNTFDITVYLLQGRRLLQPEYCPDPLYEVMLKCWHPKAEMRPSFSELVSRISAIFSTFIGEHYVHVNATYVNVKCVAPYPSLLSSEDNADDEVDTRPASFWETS", "test": "KINOMEscan", "type": "binding", "settings": "1 uM", "outline": "(§1)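 Binding assay, no enzymatic read-out; all compounds tested at 1 μM to find kinases whose substrate binding they inhibit.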"}, "[2]": {"biological_target": "T2, ABL1(H396P)-phosphorylated (Homo sapiens, UniProt P00519, H396P)", "T2 construct": "purchased Ambit KINOMEscan (DiscoverX)", "test": "KINOMEscan", "type": "binding", "settings": "1 uM", "outline": "as §1"}, "CDK4-cyclinD1": {"biological_target": "T3, CDK4-cyclinD1 (Homo sapiens, UniProt P11802)", "T3 construct": "purchased Ambit KINOMEscan (DiscoverX)", "test": "KINOMEscan", "type": "binding", "settings": "CDK4-cyclinD1, 1 uM", "outline": "as §1"}, "NEK3": {"biological_target": "T4, NEK3 (Homo sapiens, UniProt P51956)", "T4 construct": "purchased Ambit KINOMEscan (DiscoverX)", "test": "KINOMEscan", "type": "binding", "settings": "NEK3, 1 uM", "outline": "as §1"}, "CSNK1A1L": {"biological_target": "T5, CSNK1A1L (Homo sapiens, UniProt Q8N752)", "T5 construct": "purchased Ambit KINOMEscan (DiscoverX)", "test": "KINOMEscan", "type": "binding", "settings": "1 uM", "outline": "as §1"}, "[3]": {"biological_target": "T6, EGFR(L747-S752del, P753S) (Homo sapiens, UniProt P00533, DEL747-752/P753S)", "T6 construct": "purchased Ambit KINOMEscan (DiscoverX)", "T6 sequence (P00533 with tags, fused parts or gaps DEL747-752/P753S limits assumed)": "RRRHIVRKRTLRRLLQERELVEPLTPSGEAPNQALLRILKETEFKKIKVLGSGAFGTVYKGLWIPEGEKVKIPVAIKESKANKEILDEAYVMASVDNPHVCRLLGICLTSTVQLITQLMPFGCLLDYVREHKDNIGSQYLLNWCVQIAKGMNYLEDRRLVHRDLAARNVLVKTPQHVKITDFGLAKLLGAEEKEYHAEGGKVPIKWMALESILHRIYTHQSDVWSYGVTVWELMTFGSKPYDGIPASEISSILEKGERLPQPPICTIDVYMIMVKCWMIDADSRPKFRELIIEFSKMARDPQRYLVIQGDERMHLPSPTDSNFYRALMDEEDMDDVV", "test": "KINOMEscan", "type": "binding", "settings": "1 uM", "outline": "as §1"}, "ZAK": {"biological_target": "T7, ZAK (Homo sapiens, UniProt Q9NYL2)", "T7 construct": "purchased Ambit KINOMEscan (DiscoverX)", "test": "KINOMEscan", "type": "binding", "settings": "1 uM", "outline": "as §1"}, "RET(V804L)": {"biological_target": "T8, RET(V804L) (Homo sapiens, UniProt P07949, V804L)", "T8 construct": "purchased Ambit KINOMEscan (DiscoverX)", "T8 sequence (P07949 29-1114 V804L)": "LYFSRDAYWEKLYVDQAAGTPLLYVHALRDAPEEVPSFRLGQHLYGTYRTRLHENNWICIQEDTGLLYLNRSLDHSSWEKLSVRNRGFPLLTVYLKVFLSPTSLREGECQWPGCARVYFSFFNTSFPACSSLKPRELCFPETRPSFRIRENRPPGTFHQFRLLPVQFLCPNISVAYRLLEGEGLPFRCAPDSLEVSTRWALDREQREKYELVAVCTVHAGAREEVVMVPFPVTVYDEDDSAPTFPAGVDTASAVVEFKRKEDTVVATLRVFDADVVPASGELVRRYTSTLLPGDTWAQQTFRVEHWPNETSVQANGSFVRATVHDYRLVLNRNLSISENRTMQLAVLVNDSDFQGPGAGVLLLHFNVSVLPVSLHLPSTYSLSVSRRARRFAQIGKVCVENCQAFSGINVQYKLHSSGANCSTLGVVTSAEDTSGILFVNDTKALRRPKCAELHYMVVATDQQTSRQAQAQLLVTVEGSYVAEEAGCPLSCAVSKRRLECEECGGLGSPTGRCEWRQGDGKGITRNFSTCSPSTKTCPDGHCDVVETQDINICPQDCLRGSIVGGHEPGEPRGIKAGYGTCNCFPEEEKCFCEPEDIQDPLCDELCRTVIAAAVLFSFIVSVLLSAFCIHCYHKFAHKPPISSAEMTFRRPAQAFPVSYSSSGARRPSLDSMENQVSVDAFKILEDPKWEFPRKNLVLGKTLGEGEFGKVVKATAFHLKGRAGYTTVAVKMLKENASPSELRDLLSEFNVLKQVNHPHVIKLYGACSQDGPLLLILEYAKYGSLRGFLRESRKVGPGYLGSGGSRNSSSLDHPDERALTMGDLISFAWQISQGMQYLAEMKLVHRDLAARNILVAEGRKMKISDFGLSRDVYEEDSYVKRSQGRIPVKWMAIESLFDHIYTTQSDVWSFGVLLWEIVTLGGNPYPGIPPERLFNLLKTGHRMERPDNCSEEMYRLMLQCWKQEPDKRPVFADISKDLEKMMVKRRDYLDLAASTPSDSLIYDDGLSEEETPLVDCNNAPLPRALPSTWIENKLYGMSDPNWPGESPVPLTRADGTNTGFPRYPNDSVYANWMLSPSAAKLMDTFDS", "test": "KINOMEscan", "type": "binding", "settings": "1 uM", "outline": "as §1"}, "MKK7": {"biological_target": "T9, MKK7 (Homo sapiens, UniProt O14733)", "T9 construct": "purchased Ambit KINOMEscan (DiscoverX)", "test": "KINOMEscan", "type": "binding", "settings": "MKK7, 1 uM", "outline": "as §1"}, "SRC": {"biological_target": "T10, SRC (Homo sapiens, UniProt P12931)", "T10 construct": "purchased Ambit KINOMEscan (DiscoverX)", "test": "KINOMEscan", "type": "binding", "settings": "1 uM", "outline": "as §1"}, "MYLK4": {"biological_target": "T11, MYLK4 (Homo sapiens, UniProt Q86YV6)", "T11 construct": "purchased Ambit KINOMEscan (DiscoverX)", "test": "KINOMEscan", "type": "binding", "settings": "MYLK4, 1 uM", "outline": "as §1"}, "KIT(D816H)": {"biological_target": "T12, KIT(D816H) (Homo sapiens, UniProt P10721, D816H)", "T12 construct": "purchased Ambit KINOMEscan (DiscoverX)", "T12 sequence (P10721 26-976 D816H)": "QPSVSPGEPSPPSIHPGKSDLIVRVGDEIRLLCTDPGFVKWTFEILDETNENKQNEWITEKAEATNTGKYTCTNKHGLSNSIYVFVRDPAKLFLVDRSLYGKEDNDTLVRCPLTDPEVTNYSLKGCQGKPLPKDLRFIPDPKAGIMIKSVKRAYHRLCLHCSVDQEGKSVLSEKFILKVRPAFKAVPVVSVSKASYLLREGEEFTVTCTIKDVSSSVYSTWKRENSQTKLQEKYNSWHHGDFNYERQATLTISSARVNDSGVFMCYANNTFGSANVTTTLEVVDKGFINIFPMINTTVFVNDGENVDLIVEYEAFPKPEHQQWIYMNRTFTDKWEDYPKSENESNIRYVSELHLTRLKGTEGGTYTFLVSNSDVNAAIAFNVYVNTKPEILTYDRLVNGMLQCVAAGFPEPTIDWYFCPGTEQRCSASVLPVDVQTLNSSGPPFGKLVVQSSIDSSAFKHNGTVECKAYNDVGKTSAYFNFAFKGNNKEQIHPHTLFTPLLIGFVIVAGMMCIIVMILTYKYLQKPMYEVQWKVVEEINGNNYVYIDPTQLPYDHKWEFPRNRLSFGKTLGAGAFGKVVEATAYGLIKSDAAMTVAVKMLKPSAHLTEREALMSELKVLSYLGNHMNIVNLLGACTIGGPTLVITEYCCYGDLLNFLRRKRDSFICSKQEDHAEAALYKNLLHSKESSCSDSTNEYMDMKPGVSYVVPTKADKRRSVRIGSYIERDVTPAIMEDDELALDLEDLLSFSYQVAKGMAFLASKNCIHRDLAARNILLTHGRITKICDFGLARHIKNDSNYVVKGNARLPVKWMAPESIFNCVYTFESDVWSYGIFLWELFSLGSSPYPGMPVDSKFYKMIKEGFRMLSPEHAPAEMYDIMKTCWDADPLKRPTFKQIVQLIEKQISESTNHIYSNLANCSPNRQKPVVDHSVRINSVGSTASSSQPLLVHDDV", "test": "KINOMEscan", "type": "binding", "settings": "1 uM", "outline": "as §1"}, "FLT3(D835Y)": {"biological_target": "T13, FLT3(D835Y) (Homo sapiens, UniProt P36888, D835Y)", "T13 construct": "purchased Ambit KINOMEscan (DiscoverX)", "test": "KINOMEscan", "type": "binding", "settings": "1 uM", "outline": "as §1"}, "CDK4-cyclinD3": {"biological_target": "T14, CDK4-cyclinD3 (Homo sapiens, UniProt P11802)", "T14 construct": "purchased Ambit KINOMEscan (DiscoverX)", "test": "KINOMEscan", "type": "binding", "settings": "CDK4-cyclinD3, 1 uM", "outline": "as §1"}, "MEK5": {"biological_target": "T15, MEK5 (Homo sapiens, UniProt Q13163)", "T15 construct": "purchased Ambit KINOMEscan (DiscoverX)", "test": "KINOMEscan", "type": "binding", "settings": "MEK5, 1 uM", "outline": "as §1"}, "MTOR": {"biological_target": "T16, MTOR (Homo sapiens, UniProt P42345)", "T16 construct": "purchased Ambit KINOMEscan (DiscoverX)", "test": "KINOMEscan", "type": "binding", "settings": "1 uM", "outline": "as §1"}, "RET(M918T)": {"biological_target": "T17, RET(M918T) (Homo sapiens, UniProt P07949, M918T)", "T17 construct": "purchased Ambit KINOMEscan (DiscoverX)", "T17 sequence (P07949 29-1114 M918T)": "as the sequence (P07949 29-1114 V804L) above, with L776V, M890T counted along it", "test": "KINOMEscan", "type": "binding", "settings": "1 uM", "outline": "as §1"}, "TRKA": {"biological_target": "T18, TRKA (Homo sapiens, UniProt P04629)", "T18 construct": "purchased Ambit KINOMEscan (DiscoverX)", "T18 sequence (P04629 33-796)": "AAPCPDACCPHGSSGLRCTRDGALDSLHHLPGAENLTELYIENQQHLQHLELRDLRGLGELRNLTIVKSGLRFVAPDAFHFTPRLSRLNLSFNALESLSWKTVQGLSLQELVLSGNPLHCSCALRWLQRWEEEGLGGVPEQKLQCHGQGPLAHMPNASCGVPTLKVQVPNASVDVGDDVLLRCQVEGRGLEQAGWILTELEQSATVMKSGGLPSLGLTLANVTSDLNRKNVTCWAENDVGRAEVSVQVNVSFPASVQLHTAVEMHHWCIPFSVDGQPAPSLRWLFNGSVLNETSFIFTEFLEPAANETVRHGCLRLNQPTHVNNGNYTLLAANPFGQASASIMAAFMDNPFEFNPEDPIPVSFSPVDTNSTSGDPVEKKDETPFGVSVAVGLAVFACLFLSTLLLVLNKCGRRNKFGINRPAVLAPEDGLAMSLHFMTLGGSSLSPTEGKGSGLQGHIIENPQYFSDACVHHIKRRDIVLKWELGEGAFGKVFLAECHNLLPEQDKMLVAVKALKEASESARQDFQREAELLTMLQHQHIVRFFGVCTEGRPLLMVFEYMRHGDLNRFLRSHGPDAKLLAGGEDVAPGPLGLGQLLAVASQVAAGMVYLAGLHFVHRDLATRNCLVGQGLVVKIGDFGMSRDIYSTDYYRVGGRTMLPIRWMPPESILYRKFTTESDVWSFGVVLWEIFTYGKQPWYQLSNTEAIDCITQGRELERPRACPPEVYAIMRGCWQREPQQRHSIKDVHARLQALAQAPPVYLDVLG", "test": "KINOMEscan", "type": "binding", "settings": "1 uM", "outline": "as §1"}, "CAMK2B": {"biological_target": "T19, CAMK2B (Homo sapiens, UniProt Q13554)", "T19 construct": "purchased Ambit KINOMEscan (DiscoverX)", "test": "KINOMEscan", "type": "binding", "settings": "1 uM", "outline": "as §1"}, "PIK3CA(H1047L)": {"biological_target": "T20, PIK3CA(H1047L) (Homo sapiens, UniProt P42336, H1047L)", "T20 construct": "purchased Ambit KINOMEscan (DiscoverX)", "test": "KINOMEscan", "type": "binding", "settings": "1 uM", "outline": "as §1"}}, "data": [{"compound": "COc1ccc(-c2cc3nccn3c(Nc3ncccc3C(N)=O)n2)cc1OC.Cl.Cl", "note": "[BAY61-3606, 2-[7-(3,4-dimethoxyphenyl)-imidazo [1,2-c]pyrimidin-5-ylamino] nicotinamide dihydrochloride, reference compound]", "values": [{"measurement": "MEK and ERK phosphorylation", "setting": "[1]", "result": "unable to do so"}]}, {"compound": "COc1ccccc1Nc1nc(-c2ccc(OC)c(OC)c2)cc2nccn12", "note": "[BAY derivative 6]", "values": [{"measurement": "% binding compared to no inhibitor control", "setting": "MET(M1250T)", "result": 100, "unit": "%"}, {"measurement": "% binding compared to no inhibitor control", "setting": "[2]", "result": 100, "unit": "%"}, {"measurement": "% binding compared to no inhibitor control", "setting": "CDK4-cyclinD1", "result": 100, "unit": "%"}, {"measurement": "% binding compared to no inhibitor control", "setting": "NEK3", "result": 100, "unit": "%"}, {"measurement": "% binding compared to no inhibitor control", "setting": "CSNK1A1L", "result": 100, "unit": "%"}, {"measurement": "% binding compared to no inhibitor control", "setting": "[3]", "result": 76, "unit": "%"}, {"measurement": "% binding compared to no inhibitor control", "setting": "ZAK", "result": 92, "unit": "%"}, {"measurement": "% binding compared to no inhibitor control", "setting": "RET(V804L)", "result": 95, "unit": "%"}, {"measurement": "% binding compared to no inhibitor control", "setting": "MKK7", "result": 86, "unit": "%"}, {"measurement": "% binding compared to no inhibitor control", "setting": "SRC", "result": 51, "unit": "%"}, {"measurement": "% binding compared to no inhibitor control", "setting": "MYLK4", "result": 100, "unit": "%"}, {"measurement": "% binding compared to no inhibitor control", "setting": "KIT(D816H)", "result": 61, "unit": "%"}, {"measurement": "% binding compared to no inhibitor control", "setting": "FLT3(D835Y)", "result": 50, "unit": "%"}, {"measurement": "% binding compared to no inhibitor control", "setting": "CDK4-cyclinD3", "result": 95, "unit": "%"}, {"measurement": "% binding compared to no inhibitor control", "setting": "MEK5", "result": 100, "unit": "%"}, {"measurement": "% binding compared to no inhibitor control", "setting": "MTOR", "result": 67, "unit": "%"}, {"measurement": "% binding compared to no inhibitor control", "setting": "RET(M918T)", "result": 72, "unit": "%"}, {"measurement": "% binding compared to no inhibitor control", "setting": "TRKA", "result": 98, "unit": "%"}, {"measurement": "% binding compared to no inhibitor control", "setting": "CAMK2B", "result": 100, "unit": "%"}, {"measurement": "% binding compared to no inhibitor control", "setting": "PIK3CA(H1047L)", "result": 100, "unit": "%"}]}]}
